Experimental data reported in patent EP0996436B1, “PHARMACEUTICAL FORMULATIONS CONTAINING POORLY SOLUBLE DRUG SUBSTANCES” (Sanofi-Aventis, priority 1997, dated 1998).

Assays:
[1] = Dissolution rate of SR48692 capsules in deionized water pH 5.5 (USP Apparatus 2); type: physicochemical; conditions: at the end of the experiment of 60 minutes, water pH 5.5 (unbuffered), 37°C
Method: The dissolution rate of 25 mg SR48692 solid dispersion in hard gelatin capsules were measured in deionized water (900 ml, pH=5.5, unbuffered) at 37°C. A USP dissolution system (Apparatus 2) with a paddle speed of 100 RPM was used. Dissolution rate was monitored by UV (Hewlett Packard 8452A) at 234 nm.
A screening dissolution test was run in USP Apparatus 2 with water at pH 5.5 (unbuffered) at 37°C comparing the solid dispersion of this invention (Example 2) with unformulated (jet-milled) SR48692. The solid dispersions provide enormous dissolution enhancement with respect to pure drug and low impurity levels (0.4%).

[2] = Solubility of SR48692 in polyethylene glycol/NaOH/water; type: physicochemical; conditions: PEG/NaOH/H2O; mole equivalents of NaOH per mole of drug 1.0 and less

dissolved [1]: < 10% | solubility [2]: Inadequate
Substance: SR48692
